Source: patent publication US8710085B2, “Pyrrolidine-1,2-dicarboxamide derivatives” (Novartis AG, priority 2008, dated 2014)

How the values were obtained:
[1] = In vitro metabolic clearance, rat liver microsomes (CYP MetCL-Ra); type: in vitro ADME; details: rat liver microsomes 0.5 mg/mL, test article 1.0 μM, NADPH, 37° C.; read-out: CYP MetCL-Ra/CL(int)
Method: (§1) Final test article and protein concentrations, as well as incubation duration, are shown below (Table 1). Low test article concentrations were selected to comply with the assumption that reaction kinetics are evaluated at a concentration less than (or approximately equal to) Km. DMSO is known to have an inhibitory effect on CYP activity. Therefore, the concentration of DMSO in the incubation media has been restricted to 0.01% (v/v) so that interference to the metabolic process is minimized.
(§2) A typical experiment is performed in 96-well format with shaking incubation at 37° C. […] A 30 minutes negative control incubation (minus cofactor) is also performed to assess CYP-unrelated stability issues (eg, chemical instability, CYP-independent metabolism).
In general, TA's in 10 mM DMSO are diluted 1:1000 into 0.6% ACN (v/v) in DiH20 to 10 μM. […] For evaluation of UGT-mediated metabolism, the suspension may be first pretreated by 5 min incubation on ice with alamethicin (25 μg/mg of microsomal protein). […]
(§3) The bulk reactions for the remaining time points are initiated by addition of 125 μL of cofactor solution (2 mM NADPH in 50 mM KPi plus 4 mM MgCl2) to the remaining 125 μL of enzyme.substrate mixture. […] All the samples are centrifuged at ˜3400×g at 4° C. for 10 min and the supernatants are analyzed by LC-MS/MS for quantitation of remaining TA. […]

[2] = In vitro metabolic clearance, human liver microsomes (CYP MetCL-Hu); type: in vitro ADME; details: human liver microsomes 0.5 mg/mL, test article 1.0 μM, NADPH, 37° C.; read-out: CYP MetCL-Hu/CL(int)
Method: as §1, §2
In general, TA's in 10 mM DMSO are diluted 1:1000 into 0.6% ACN (v/v) in DiH20 to 10 μM. […] For evaluation of UGT-mediated metabolism, the suspension may be first pretreated by 5 min incubation on ice with alamethicin (25 μg/mg of microsomal protein). TA (35 μL) is added to 140 μL of the microsomal suspensions for 175 μL enzymesubstrate mixture. […] The 30 min negative control incubation is processed by combining 25 μL of enzyme.substrate mixture with an equal volume of 50 mM KPi containing 4 mM MgCl2. Following a 30 minute incubation at 37° C., the mix is quenched by adding 50 μL of ACN containing the MS internal standard (2 μM alprenolol). The T=0 min time point is processed by combining 25 μL of enzyme.substrate mixture directly with 50 μL of ACN containing the MS internal standard (2 μM alprenolol). 25 μL of the cofactor solution is added (2 mM NADPH in 50 mM KPi plus 4 mM MgCl2; optionally including 2 mM UDPGA for CYP+UGT assays) to simulate the complete quenched reaction mixture.
as §3

PI3Kβ = target: T1, PI3Kβ (Homo sapiens, UniProt P42338); experiment: PI3K KinaseGlo assay, PI3Kβ; type: biochemical; details: KinaseGlo; 25 nM enzyme, 1 μM ATP, 30 mins, room temperature; read-out: PI3Kb/IC50
T1 construct: p110β(2-1070)-His; made in house; host or cells: baculovirus, Tn5 insect cells
T1 sequence (P42338 with tags, fused parts or gaps): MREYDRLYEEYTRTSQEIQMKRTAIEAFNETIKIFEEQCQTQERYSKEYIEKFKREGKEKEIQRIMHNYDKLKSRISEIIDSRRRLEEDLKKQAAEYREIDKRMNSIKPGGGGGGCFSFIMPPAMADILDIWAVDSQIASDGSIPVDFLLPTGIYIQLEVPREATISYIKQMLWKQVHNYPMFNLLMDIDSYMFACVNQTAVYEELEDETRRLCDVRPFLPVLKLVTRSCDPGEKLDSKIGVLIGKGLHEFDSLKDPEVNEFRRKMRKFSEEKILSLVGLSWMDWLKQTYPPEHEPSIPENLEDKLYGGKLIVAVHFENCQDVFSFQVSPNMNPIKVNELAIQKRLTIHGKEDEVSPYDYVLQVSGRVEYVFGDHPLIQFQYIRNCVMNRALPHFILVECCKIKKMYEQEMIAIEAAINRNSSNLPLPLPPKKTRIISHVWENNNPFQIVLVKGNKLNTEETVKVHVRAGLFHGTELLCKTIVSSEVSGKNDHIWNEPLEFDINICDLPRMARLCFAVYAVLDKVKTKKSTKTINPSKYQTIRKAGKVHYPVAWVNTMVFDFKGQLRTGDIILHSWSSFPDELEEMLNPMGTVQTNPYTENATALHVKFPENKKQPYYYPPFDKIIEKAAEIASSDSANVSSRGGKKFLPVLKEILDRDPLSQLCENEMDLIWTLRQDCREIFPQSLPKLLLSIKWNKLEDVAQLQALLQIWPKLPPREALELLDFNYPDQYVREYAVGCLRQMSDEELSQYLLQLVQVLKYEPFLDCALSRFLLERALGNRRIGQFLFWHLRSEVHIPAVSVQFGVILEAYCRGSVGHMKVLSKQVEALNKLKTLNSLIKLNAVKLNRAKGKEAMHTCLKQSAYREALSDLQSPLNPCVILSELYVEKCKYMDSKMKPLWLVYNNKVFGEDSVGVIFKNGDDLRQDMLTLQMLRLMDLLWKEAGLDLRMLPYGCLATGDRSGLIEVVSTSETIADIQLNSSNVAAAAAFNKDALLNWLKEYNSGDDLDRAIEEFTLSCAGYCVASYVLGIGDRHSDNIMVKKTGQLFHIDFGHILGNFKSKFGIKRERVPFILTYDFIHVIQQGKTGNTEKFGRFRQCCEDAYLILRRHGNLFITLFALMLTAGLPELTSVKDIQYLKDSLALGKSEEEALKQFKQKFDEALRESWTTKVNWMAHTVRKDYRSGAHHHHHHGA
Method: (§4) PI3K KinaseGlo assay: 50 mL of compound dilutions were dispensed onto black 384-well low volume Non Binding Styrene (NBS) plates (Costar Cat. No. NBS#3676). L-a-phosphatidylinositol (PI), provided as 10 mg/ml solution in methanol, was transferred into a glass tube and dried under nitrogen beam. It was then resuspended in 3% OctylGlucoside (OG) by vortexing and stored at 4° C. The KinaseGlo Luminescent Kinase Assay (Promega, Madison/WI, USA) is a homogeneous HTS method of measuring kinase activity by quantifying the amount of ATP remaining in solution following a kinase reaction.
(§5) 5 μL of a mix of PI/OG with the PI3K subtype were added (Table 1). Kinase reactions were started by addition of 5 μl of ATP-mix containing in a final volume 10 μL 10 mM TRIS-HCl pH 7.5, 3 mM MgCl2, 50 mM NaCl, 0.05% CHAPS, 1 mM DTT and 1 μM ATP, and occurred at room temperature. […] The standard was used as a reference compound and included in all assay plates in the form of 16 dilution points in duplicate.
The PI3Kα, PI3Kβ and PI3Kδ constructs are fusion of p85α iSH2 domain and the respective p110 isoforms. The p85α fragment and p110 isoform genes were generated by PCR from first strand cDNA generated by RT-PCR from commercial RNA from placenta, testis and brain as described below. The PI3Kγ construct was obtained from Roger Williams lab, MRC Laboratory of Molecular Biology, Cambridge, UK (November, 2003) and is described (Pacold, Michael E.; Suire, Sabine; Perisic, Olga; Lara-Gonzalez, Samuel; Davis, Colin T.; Walker, Edward H.; Hawkins, Phillip T.; Stephens, Len; Eccleston, John F.; Williams, Roger L. Crystal structure and functional analysis of Ras binding to its effector phosphoinositide 3-kinase gamma. Cell (2000), 103(6), 931-943).
BV949: PCR products for the inter SH2 domain (iSH2) of the p85 PI3Kα, PI13Kβ and PI3Kδ subunit and for the full-length p110β subunit were generated and fused by overlapping PCR. […] The p11013 fragment was obtained by PCR using as template a p110β clone (from unknown source that was sequence verified) using primers gwG130-p04 (5′-[…]-[…]-3′) (SEQ ID NO: 9) which contains linker sequences and the 5′ end of p110β and gwG130-p06 (5′-[…]-[…]-3′) (SEQ ID NO: 10) which contains sequences of the 3′ end of p110-β fused to a Histidine tag. […] This final product was recombined in a Gateway (Invitrogen) […] into the donor vector pDONR201 (Invitrogen) to generate the ORF253 entry clone. This clone was verified by sequencing and used in a Gateway LR reaction (Invitrogen) to transfer the insert into the Gateway adapted pBlueBac4.5 (Invitrogen) vector for generation of the baculovirus expression vector LR280.
(§6) PI3Kα, PI3Kβ and PI3Kγ were purified in two chromatographic steps: immobilized metal affinity chromatography (IMAC) on a Ni sepharose resin (GE Healthcare) and gel filtration utilizing a Superdex 200 26/60 column (GE Healthcare). All buffers were chilled to 4° C. and lysis was performed chilled on ice. Column fractionation was performed at room temperature. All buffers used to purify PI3Kβ contained 0.05% Triton X100 in addition to what is described below.
The lysate was centrifuged at 45,000 g for 30 minutes, and the supernatant was loaded onto a pre-equilibrated IMAC column (3 mL resin/100 mL lysate). […] Protein was eluted with 20 mM Tris-Cl, pH 7.5, 0.5 M NaCl, 5% glycerol, 250 mM imidazole, 1 mM NaF, 0.1 μg/mL OAA, 5 mM BME, 1× Complete protease inhibitor cocktail—EDTA-free. Pertinent fractions were analyzed by SDS-PAGE and pooled accordingly. The protein was further purified by gel filtration on a Superdex 200 26/60 column equilibrated in 20 mM Tris-Cl, pH 7.5, 0.5 M NaCl, 5% glycerol, 1 mM NaF, 5 mM DTT, 1× Complete protease inhibitor cocktail—EDTA-free. Pertinent fractions were analyzed by SDS-PAGE and pooled accordingly.

PI3Kα = target: T2, PI3Kα (Homo sapiens, UniProt P42336); experiment: PI3K KinaseGlo assay, PI3Kα; type: biochemical; details: KinaseGlo, 10 nM enzyme, 1 μM ATP, 30 mins, room temperature
T2 construct: p110α(21-1068)-His; made in house; host or cells: baculovirus, Tn5 insect cells
T2 sequence (P42336 with tags, fused parts or gaps): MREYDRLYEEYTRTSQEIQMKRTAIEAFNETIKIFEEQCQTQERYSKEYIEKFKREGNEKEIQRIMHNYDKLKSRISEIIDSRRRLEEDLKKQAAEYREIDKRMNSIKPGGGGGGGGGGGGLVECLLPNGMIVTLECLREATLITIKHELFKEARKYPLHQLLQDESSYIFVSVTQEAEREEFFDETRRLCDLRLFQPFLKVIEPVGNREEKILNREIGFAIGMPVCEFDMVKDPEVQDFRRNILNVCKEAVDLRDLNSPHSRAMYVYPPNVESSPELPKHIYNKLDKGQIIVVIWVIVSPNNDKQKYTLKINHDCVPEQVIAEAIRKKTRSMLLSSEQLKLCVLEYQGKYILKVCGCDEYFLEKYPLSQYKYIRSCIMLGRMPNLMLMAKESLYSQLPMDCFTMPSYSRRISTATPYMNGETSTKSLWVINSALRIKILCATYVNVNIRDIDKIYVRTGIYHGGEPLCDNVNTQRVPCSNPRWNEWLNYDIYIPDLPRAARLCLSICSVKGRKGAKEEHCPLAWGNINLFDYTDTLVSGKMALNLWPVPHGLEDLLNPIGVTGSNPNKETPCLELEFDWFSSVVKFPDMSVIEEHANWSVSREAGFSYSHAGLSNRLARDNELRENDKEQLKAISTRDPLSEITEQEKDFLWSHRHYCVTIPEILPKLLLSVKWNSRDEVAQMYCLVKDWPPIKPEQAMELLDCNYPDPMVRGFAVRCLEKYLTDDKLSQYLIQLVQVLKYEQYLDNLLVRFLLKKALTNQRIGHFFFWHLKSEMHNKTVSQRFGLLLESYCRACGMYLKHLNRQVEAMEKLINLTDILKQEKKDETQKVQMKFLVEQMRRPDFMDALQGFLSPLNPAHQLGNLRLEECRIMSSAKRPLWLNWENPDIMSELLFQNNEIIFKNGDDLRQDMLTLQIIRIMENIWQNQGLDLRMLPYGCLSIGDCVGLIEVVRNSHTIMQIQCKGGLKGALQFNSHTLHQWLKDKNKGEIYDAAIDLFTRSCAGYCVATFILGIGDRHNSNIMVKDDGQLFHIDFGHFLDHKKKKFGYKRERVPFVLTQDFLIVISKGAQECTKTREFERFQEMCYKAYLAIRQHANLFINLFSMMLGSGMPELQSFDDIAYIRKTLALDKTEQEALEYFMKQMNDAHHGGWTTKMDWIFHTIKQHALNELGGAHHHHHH

PI3Kγ = target: T3, PI3Kγ (Homo sapiens, UniProt P48736, Q459R); experiment: PI3K KinaseGlo assay, PI3Kγ; type: biochemical; details: 150 nM enzyme, 1 μM ATP, 90 mins, room temperature, read-out: PI3Kg/IC50
T3 construct: p110γ(Δ143-[Met144-1102])-His; made in house; host or cells: Tn5 insect cells; construct from Roger Williams lab, MRC LMB
T3 sequence (P48736 with tags, fused parts or gaps Q459R): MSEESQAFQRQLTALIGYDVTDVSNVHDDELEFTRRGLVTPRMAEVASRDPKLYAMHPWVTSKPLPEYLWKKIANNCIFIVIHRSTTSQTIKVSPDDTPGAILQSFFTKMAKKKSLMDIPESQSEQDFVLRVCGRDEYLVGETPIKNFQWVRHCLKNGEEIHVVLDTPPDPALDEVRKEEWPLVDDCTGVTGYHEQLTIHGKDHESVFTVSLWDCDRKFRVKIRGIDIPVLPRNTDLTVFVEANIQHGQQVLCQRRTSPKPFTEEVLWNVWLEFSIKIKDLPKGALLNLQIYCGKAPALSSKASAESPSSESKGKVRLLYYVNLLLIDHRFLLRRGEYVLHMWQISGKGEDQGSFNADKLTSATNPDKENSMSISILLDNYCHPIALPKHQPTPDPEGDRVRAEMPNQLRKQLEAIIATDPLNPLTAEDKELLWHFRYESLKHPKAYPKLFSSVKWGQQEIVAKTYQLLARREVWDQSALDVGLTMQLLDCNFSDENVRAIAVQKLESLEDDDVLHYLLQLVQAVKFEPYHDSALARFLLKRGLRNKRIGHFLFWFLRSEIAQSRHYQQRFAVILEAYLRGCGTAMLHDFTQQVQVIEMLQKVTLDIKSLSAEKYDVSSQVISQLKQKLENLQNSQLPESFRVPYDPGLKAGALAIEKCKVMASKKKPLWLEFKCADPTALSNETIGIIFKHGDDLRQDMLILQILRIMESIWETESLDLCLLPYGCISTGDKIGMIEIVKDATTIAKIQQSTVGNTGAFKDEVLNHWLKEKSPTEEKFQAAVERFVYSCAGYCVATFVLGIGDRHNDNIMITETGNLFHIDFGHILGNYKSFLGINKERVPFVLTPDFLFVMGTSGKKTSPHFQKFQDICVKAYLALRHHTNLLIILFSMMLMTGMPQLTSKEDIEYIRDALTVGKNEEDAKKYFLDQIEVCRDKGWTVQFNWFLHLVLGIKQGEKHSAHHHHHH
Method: as §4, with “L-a-phosphatidylinositol” for “PI3K KinaseGlo assay: 50 mL of compound dilutions were dispensed onto black 384-well low volume Non Binding Styrene (NBS) plates (Costar Cat. No. NBS#3676). L-a-phosphatidylinositol”
as §5, with “duplicate. […]” for “duplicate.”
as §6
The lysate was centrifuged at 45,000 g for 30 minutes, and the supernatant was loaded onto a pre-equilibrated IMAC column (3 mL resin/100 mL lysate). […] Protein was eluted with 20 mM Tris-Cl, pH 7.5, 0.5 M NaCl, 5% glycerol, 250 mM imidazole, 1 mM NaF, 0.1 μg/mL OAA, 5 mM BME, 1× Complete protease inhibitor cocktail—EDTA-free. Pertinent fractions were analyzed by SDS-PAGE and pooled accordingly. The protein was further purified by gel filtration on a Superdex 200 26/60 column equilibrated in 20 mM Tris-Cl, pH 7.5, 0.5 M NaCl, 5% glycerol, 1 mM NaF, 5 mM DTT, 1× Complete protease inhibitor cocktail—EDTA-free. Pertinent fractions were analyzed by SDS-PAGE and pooled accordingly. An equal volume of Dialysis Buffer (20 mM Tris-Cl, pH 7.5, 500 mM NaCl, 50% glycerol, 5 mM NaF, 5 mM DTT) was added to the pool and than dialyzed against Dialysis Buffer two changes (one change overnight). Protein was stored at −20° C.

PI3Kδ = target: T4, PI3Kδ (Homo sapiens, UniProt O00329); experiment: PI3K KinaseGlo assay, PI3Kδ; type: biochemical; details: 10 nM enzyme, 1 μM ATP, 30 mins, room temperature, read-out: PI3Kd/IC50
T4 construct: p85iSH2(461-568)-GGGGGG-p110δ(2-1044)-His; made in house; host or cells: baculovirus, Tn5 insect cells
T4 sequence (O00329 with tags, fused parts or gaps): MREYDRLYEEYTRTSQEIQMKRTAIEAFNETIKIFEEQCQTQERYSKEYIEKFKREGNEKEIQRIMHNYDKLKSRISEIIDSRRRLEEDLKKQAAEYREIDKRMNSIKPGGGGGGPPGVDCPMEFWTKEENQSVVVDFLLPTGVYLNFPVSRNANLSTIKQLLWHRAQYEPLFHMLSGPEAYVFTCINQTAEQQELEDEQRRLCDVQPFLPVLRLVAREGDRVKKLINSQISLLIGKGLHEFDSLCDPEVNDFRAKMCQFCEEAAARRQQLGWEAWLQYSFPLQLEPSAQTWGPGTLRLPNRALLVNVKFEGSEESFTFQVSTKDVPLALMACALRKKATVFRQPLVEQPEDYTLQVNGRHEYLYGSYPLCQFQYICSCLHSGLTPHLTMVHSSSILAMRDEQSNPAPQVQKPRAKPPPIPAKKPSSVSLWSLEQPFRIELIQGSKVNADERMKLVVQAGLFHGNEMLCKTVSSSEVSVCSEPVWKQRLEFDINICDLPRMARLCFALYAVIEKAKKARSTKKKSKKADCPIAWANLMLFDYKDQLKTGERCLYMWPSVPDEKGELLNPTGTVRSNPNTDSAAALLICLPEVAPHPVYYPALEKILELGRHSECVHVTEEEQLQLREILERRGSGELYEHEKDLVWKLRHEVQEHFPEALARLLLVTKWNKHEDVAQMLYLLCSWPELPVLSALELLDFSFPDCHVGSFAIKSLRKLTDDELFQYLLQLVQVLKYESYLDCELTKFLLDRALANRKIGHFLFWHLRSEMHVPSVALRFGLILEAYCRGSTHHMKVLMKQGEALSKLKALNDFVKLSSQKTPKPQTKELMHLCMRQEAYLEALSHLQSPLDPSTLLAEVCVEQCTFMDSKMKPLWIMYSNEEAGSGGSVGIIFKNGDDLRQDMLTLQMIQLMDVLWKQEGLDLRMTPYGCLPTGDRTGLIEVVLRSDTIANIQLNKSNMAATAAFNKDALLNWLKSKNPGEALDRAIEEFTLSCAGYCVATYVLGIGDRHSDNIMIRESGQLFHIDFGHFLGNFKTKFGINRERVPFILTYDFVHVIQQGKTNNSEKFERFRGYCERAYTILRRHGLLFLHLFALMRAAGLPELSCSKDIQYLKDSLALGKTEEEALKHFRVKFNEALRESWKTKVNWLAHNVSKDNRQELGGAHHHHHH

Compound: Cc1nc(NC(=O)N2CCC[C@H]2C(N)=O)sc1-c1ccnc(CC2CC2)n1 [Example 70, (S)-Pyrrolidine-1,2-dicarboxylic acid 2-amide 1-{[5-(2-cyclopropylmethyl-pyrimidin-4-yl)-4-methyl-thiazol-2-yl]-amide}]
- melting point: 220 to 222 °C

Compound: Cc1cc(-c2sc(NC(=O)N3CCC[C@H]3C(N)=O)nc2C)nc(C(C)(C)C)n1 [Example 72, (S)-Pyrrolidine-1,2-dicarboxylic acid 2-amide 1-{[5-(2-tert-butyl-6-methylpyrimidin-4-yl)-4-methyl-thiazol-2-yl]-amide}]
- melting point: 197 to 199 °C

Compound: [2H]C([2H])([2H])C(c1nccc(-c2sc(NC(=O)N3CCC[C@H]3C(N)=O)nc2C)n1)(C([2H])([2H])[2H])C([2H])([2H])[2H] [Example 61, (S)-Pyrrolidine-1,2-dicarboxylic acid 2-amide 1-{[5-(2-d9-tert-butyl-pyrimidin-4-yl)-4-methyl-thiazol-2-yl]-amide}]
- microsomal CLint at 1 μM [1]: 22 µL/min/mg
- microsomal CLint at 1 μM [2]: 19 µL/min/mg

Compound: Cc1nc(NC(=O)N2CCC[C@H]2C(N)=O)sc1-c1ccnc(C(C)(C)CF)n1 [Example 71, (S)-Pyrrolidine-1,2-dicarboxylic acid 2-amide 1-({5-[2-(2-fluoro-1,1-dimethylethyl)-pyrimidin-4-yl]-4-methyl-thiazol-2-yl}-amide)]
- melting point: 187 to 190 °C

Compound: Cc1nc(NC(=O)N2CCC[C@H]2C(N)=O)sc1-c1ccnc(-c2ccccc2F)c1 [Example 3, (S)-Pyrrolidine-1,2-dicarboxylic acid 2-amide 1-({5-[2-(2-fluoro-phenyl)-pyridin-4-yl]-4-methyl-thiazol-2-yl}-amide)]
- IC50 (PI3Kβ): 2.3 µM
- IC50 (PI3Kα; read-out: PI3Ka/IC50): 67 nM
- IC50 (PI3Kγ): 362 nM
- IC50 (PI3Kδ): 432 nM

Compound: Cc1nc(NC(=O)N2CCC[C@H]2C(N)=O)sc1-c1ccnc(C(C)(C)C(F)(F)F)c1 [Example 15, (S)-Pyrrolidine-1,2-dicarboxylic acid 2-amide 1-({4-methyl-5-[2-(2,2,2-trifluoro-1,1-dimethyl-ethyl)-pyridin-4-yl]-thiazol-2-yl}-amide)]
- microsomal CLint at 1 μM [2]: 33 µL/min/mg

Compound: CC(C)(c1cc(-c2sc(NC(=O)N3CCC[C@H]3C(N)=O)nc2Cl)ccn1)C(F)(F)F [Example 37, (S)-Pyrrolidine-1,2-dicarboxylic acid 2-amide 1-({4-chloro-5-[2-(2,2,2-trifluoro-1,1-dimethyl-ethyl)-pyridin-4-yl]-thiazol-2-yl}-amide)]
- IC50 (PI3Kβ): 5.52 µM
- PI3Ka/IC50 (PI3Kα): 0.039 umol I-1
- IC50 (PI3Kγ): 4450 nM
- IC50 (PI3Kδ): 386 nM
